The text below walks through data of US9745328B2, “Flap modulators” (JANSSEN PHARMACEUTICA NV, priority 2013, dated 2017).

Molecules are shown by their SMILES. Counter-ions that a name gives are not always drawn.

Chain of human FLAP (P20292 whole entry): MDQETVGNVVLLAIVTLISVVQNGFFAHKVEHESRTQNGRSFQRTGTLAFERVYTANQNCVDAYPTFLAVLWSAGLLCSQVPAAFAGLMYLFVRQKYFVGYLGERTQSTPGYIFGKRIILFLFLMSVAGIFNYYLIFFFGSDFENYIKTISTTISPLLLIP

One assay has as its target human FLAP (Homo sapiens (Human), UniProt P20292). In words: FLAP binding assay (HTRF format). The following applies: Table 6 (additional runs), human FLAP wild type. A digest of the protocol: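 Samples were run in duplicate on each of two assay plates, the results were averaged, and the signal was expressed as an HTRF ratio.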
(In TR-FRET formats the signal depends on donor and acceptor labels being close together.)
As for `CC(C)(NS(=O)(=O)c1ccccc1-c1ccc(-c2cnc(N)nc2)c(F)c1)C(F)(F)F` [Example 296, 4′-(2-Aminopyrimidin-5-yl)-3′-fluoro-N-(2,2,2-trifluoro-1,1-dimethylethyl)biphenyl-2-sulfonamide trifluoroacetic acid salt], affinity was put at a Ki of 3.1 nM.
`Nc1cnc(-c2ccc(-c3ccccc3SCCNC(=O)c3ccccc3)cc2F)cn1` [Example 204, N-(2-{[4′-(5-Aminopyrazin-2-yl)-3′-fluorobiphenyl-2-yl]sulfanyl}ethyl)benzamide] registered an inhibition constant Ki of 4.5 nM.
With `Nc1cnc(-c2ccc(-c3ccccc3S(=O)(=O)N[C@@H]3CCCC[C@@H]3O)cc2F)cn1` [Example 87, 4′-(5-Aminopyrazin-2-yl)-3′-fluoro-N-[(1R,2S)-2-hydroxycyclohexyl]biphenyl-2-sulfonamide], the inhibition constant (Ki) amounted to 3.2 nM.
On the same count and under the same terms, for `Nc1ncc(-c2ccc(-c3ccccc3S(=O)(=O)N3CCN(C4CC4)CC3)cc2F)cn1` [Example 281, 5-{2′-[(4-Cyclopropylpiperazin-1-yl)sulfonyl]-3-fluorobiphenyl-4-yl}pyrimidin-2-amine trifluoroacetic acid salt] the value was 60.8 nM; for `Nc1cnc(-c2ccc(-c3ccccc3S(=O)(=O)NC3Cc4ccccc4C3)cc2F)cn1` [Example 21, 4′-(5-Aminopyrazin-2-yl)-N-(2,3-dihydro-1H-inden-2-yl)-3′-fluorobiphenyl-2-sulfonamide], 2.1 nM.
Compound `CN(C)S(=O)(=O)c1ccccc1-c1ccc(-c2cnc3[nH]ccc3n2)c(F)c1` [Example 370, 3′-Fluoro-N,N-dimethyl-4′-(5H-pyrrolo[2,3-b]pyrazin-2-yl)biphenyl-2-sulfonamide] displayed a Ki of 1.9 nM.
For `Nc1cnc(-c2ccc(-c3ccccc3S(=O)(=O)N3CCC(c4c[nH]cn4)CC3)cc2F)cn1` [Example 164, 5-(3-Fluoro-2′-{[4-(1H-imidazol-4′-yl)piperidin-1-yl]sulfonyl}biphenyl-4-yl)pyrazin-2-amine], the inhibitory constant (Ki) was 0.8 nM.
Same read-out and setting: as for `C[C@@H](CO)NS(=O)(=O)c1ccccc1-c1ccc(-c2cnc3[nH]ccc3c2)c(F)c1` [Example 362, 3′-Fluoro-N-[(1S)-2-hydroxy-1-methylethyl]-4′-(1H-pyrrolo[2,3-b]pyridin-5-yl)biphenyl-2-sulfonamide], the figure is 1.2 nM; as for `CC(C)(C)NS(=O)(=O)c1ccccc1-c1ccc(-c2cnc(N)nc2)c(F)c1` [Example 305, 4′-(2-aminopyrimidin-5-yl)-N-(tert-butyl)-3′-fluoro[1,1′-biphenyl]-2-sulfonamide trifluoroacetic acid salt], 1.6 nM.
As for `N#CCCN(C1CC1)S(=O)(=O)c1ccccc1-c1ccc(-c2cnc(N)cn2)c(F)c1` [Example 172, 4′-(5-Aminopyrazin-2-yl)-N-(2-cyanoethyl)-N-cyclopropyl-3′-fluorobiphenyl-2-suifonamide], the affinity, expressed as Ki, was 3.6 nM.
The same measure, in the same setting: for `C[C@H](NS(=O)(=O)c1ccccc1-c1ccc(-c2cnc(N)cn2)c(F)c1)C(O)c1ccccc1` (stereo in doubt) [Example 83, 4′-(5-Aminopyrazin-2-yl)-3′-fluoro-N-[(1S,2R)-2-hydroxy-1-methyl-2-phenylethyl]biphenyl-2-sulfonamide] the value was 0.7 nM.
On the same count and under the same terms, as for `CC(CO)NS(=O)(=O)c1ccccc1-c1ccc(-c2cnc3[nH]ccc3n2)c(F)c1` (stereo in doubt) [Example 380, 3′-Fluoro-N-[(1S)-2-hydroxy-1-methylethyl]4′-(5H-pyrrolo[2,3-b]pyrazin-2-yl)biphenyl-2-sulfonamide], the figure is 1.1 nM.
The same measure, in the same setting: as for `Nc1cnc(-c2ccc(-c3ccccc3S(=O)(=O)N3CCCCCC3)cc2F)cn1` [Example 53, 5-[2′-(Azepan-1-ylsulfonyl)-3-fluorobiphenyl-4-yl]pyrazin-2-amine], the figure is 3.3 nM; as for `Nc1cnc(-c2ccc(-c3ccccc3S(=O)(=O)N[C@@H]3CCc4ccccc43)cc2F)cn1` [Example 23, (R)-4′-(5-Aminopyrazin-2-yl|)-N-[(1R)-2,3-dihydro-1H-inden-1-yl]-3′-fluorobiphenyl-2-sulfonamide], 1.2 nM.
Consider `Nc1cnc(-c2ccc(-c3ccccc3S(=O)(=O)N3CC(O)C3)cc2F)cn1` [Example 119, 1-{[4′-(5-Aminopyrazin-2-yl)-3′-fluorobiphenyl-2-yl]sulfonyl}azetidin-3-ol], for which the inhibition constant (Ki) was found to be 2.7 nM.
The compound `Nc1cnc(-c2ccc(-c3ccccc3S(=O)(=O)N3CCC(O)(C(F)(F)F)CC3)cc2F)cn1` [Example 55, 1-{[4′-(5-Aminopyrazin-2-yl)-3′-fluorobiphenyl-2-yl]sulfonyl}-4-(trifluoromethyl)piperidin-4-ol] showed a Ki of 1.1 nM.
Same read-out and setting: for `CC1(NS(=O)(=O)c2ccccc2-c2ccc(-c3cnc(N)cn3)c(F)c2)COC1` [Example 173, 4′-(5-Aminopyrazin-2-yl)-3′-fluoro-N-(3-methyloxetan-3-yl)biphenyl-2-sulfonamide] the value was 0.8 nM; for `CCC(C)(C)NS(=O)(=O)c1ccccc1-c1ccc(-c2cnc(N)cn2)c(F)c1` [Example 12, 4′-(5-Aminopyrazin-2-yl)-N-(1,1-dimethylpropyl)-3′-fluorobiphenyl-2-sulfonamide], 1.9 nM.
The compound `CN1CCCC[C@@H](NS(=O)(=O)c2ccccc2-c2ccc(-c3cnc(N)cn3)c(F)c2)C1=O` [Example 29, (S)-4′-(5-Aminopyrazin-2-yl)-3′-fluoro-N-[(3S)-1-methyl-2-oxoazepan-3-yl]biphenyl-2-sulfonamide] displayed a Ki of 63.2 nM.
The same measure, in the same setting: for `C[C@H](NS(=O)(=O)c1ccccc1-c1ccc(-c2cnc(N)nc2)c(F)c1)C(F)(F)F` [Example 297, 4′-(2-Aminopyrimidin-5-yl)-3′-fluoro-N-[(1S)-2,2,2-trifluoro-1-methylethyl]biphenyl-2-sulfonamide trifluoroacetic acid salt] the value was 3.2 nM; for `Nc1cnc(-c2ccc(-c3ccccc3S(=O)(=O)N[C@H](CO)c3ccccc3)cc2F)cn1` [Example 81, 4′-(5-Aminopyrazin-2-yl)-3′-fluoro-N-[(1S)-2-hydroxy-1-phenylethyl]biphenyl-2-sulfonamide], 6.4 nM; for `C[C@H](O)CNS(=O)(=O)c1ccccc1-c1ccc(-c2cnc(N)cn2)c(F)c1` [Example 98, (S)-4′-(5-aminopyrazin-2-yl)-3′-fluoro-N-(2-hydroxypropyl)-[1,1′-biphenyl]-2-sulfonamide], 6.1 nM.
In the case of `C[C@@H]([C@@H](O)c1ccccc1)N(C)S(=O)(=O)c1ccccc1-c1ccc(-c2cnc(N)cn2)c(F)c1` [Example 118, 4′-(5-aminopyrazin-2-yl)-3′-fluoro-N-((1S,2S)-1-hydroxy-1-phenylpropan-2-yl)-N-methyl-[1,1′-biphenyl)-2-sulfonamide], the affinity, expressed as Ki, was 0.4 nM.
The same measure, in the same setting: as for `CC(C)[C@H](CO)NS(=O)(=O)c1ccccc1-c1ccc(-c2cnc(N)cn2)c(F)c1` [Example 109], the figure is 1.5 nM.

Staying with this assay, now noted: human FLAP wild type, Table 6 (additional runs).
Compound `CC(C)(C)NS(=O)(=O)c1ccccc1-c1ccc(-c2cnc3[nH]cc(CO)c3c2)c(F)c1` [Example 455, N-tert-Butyl-3′-fluoro-4′-[3-(hydroxymethyl)-1H-pyrrolo[2,3-b]pyridin-5-yl]biphenyl-2-sulfonamide] returned an inhibitory constant (Ki) of 0.7 nM.
The compound `CNS(=O)(=O)c1ccccc1-c1ccc(-c2cnc3[nH]cc(CO)c3c2)c(F)c1` [Example 457, 3′-Fluoro-4′-[3-(hydroxymethyl)-1H-pyrrolo[2,3-b]pyridin-5-yl]-N-methylbiphenyl-2-sulfonamide] showed a Ki of 2.7 nM.
As to `Nc1cc(Oc2cc(C(F)(F)F)ccc2-c2ccc(-c3cnc(N)nc3)c(F)c2)ncn1` [Example 561, 5-{2′-[(6-Aminopyrimidin-4-yl)oxy]-3-fluoro-4′-(trifluoromethyl)biphenyl-4-yl}pyrimidin-2-amine], affinity was put at a Ki of 4.4 nM.
`CC(C)(C)NS(=O)(=O)c1ccccc1-c1ccc(-c2cnc(N)cn2)c(F)c1F` [Example 462, 4′-(5-Aminopyrazin-2-yl)-N-tert-butyl-2′,3′-difluorobipnenyl-2-sulfonamide] came in with a Ki of 2.3 nM.
The same measure, in the same setting: as for `Nc1cnc(Oc2ccccc2-c2ccc(-c3cnc(N)cn3)c(F)c2)nc1` [Example 614, 2-{[4′-(5-Aminopyrazin-2-yl)-3′-fluorobiphenyl-2-yl]oxy}pyrimidin-5-amine], the figure is 9.8 nM; as for `Fc1cc(-c2cccnc2OCC2CC2)ccc1-c1cnc2[nH]ccc2n1` [Example 400, 2-{4-[2-(Cyclopropylmethoxy)pyridin-3-yl]-2-fluorophenyl}-5H-pyrrolo[2,3-b]pyrazine], 14.1 nM.
On the same count and under the same terms, for `CC(C)(C)NS(=O)(=O)c1ccccc1-c1ccc(-c2ccc3[nH]nc(N)c3c2)c(F)c1` [Example 597, 4′-(3-Amino-1H-indazol-5-yl)-N-tert-butyl-3′-fluorobiphenyl-2-sulfonamide] the value was about 2500 nM; for `Cc1ccccc1-c1ccc(-c2cnc(N)cn2)c(F)c1` [Example 470, 5-(3-Fluoro-2′-methylbiphenyl-4-yl)pyrazin-2-amine], 397 nM.
On the same count and under the same terms, for `Nc1ncc(-c2ccc(-c3cccnc3OC3CCS(=O)(=O)CC3)cc2F)cn1` [Example 648, 5-(4-{2-[(1,1-Dioxidotetranydro-2H-thiopyran-4-yl)oxy]pyridin-3-yl}-2-fluorophenyl)pyrimidin-2-amine] the value was 834 nM; for `CC(C)(C)NS(=O)(=O)c1ccccc1-c1ccc(-c2cnc(N)c(C#N)n2)c(F)c1` [Example 434, 4′-(5-Amino-6-cyanopyrazin-2-yl)-N-tert-butyl-3′-fluorobiphenyl-2-sulfonamide], 1.1 nM.
On to `Nc1cnc(-c2ccc(-c3ccc(C(F)(F)F)cc3Oc3nccc(N)n3)cc2F)cn1` [Example 556, 2-{[4′-(5-Aminopyrazin-2-yl)-3′-fluoro-4-(trifluoromethyl)biphenyl-2-yl]oxy}pyrimidin-4-amine], for which affinity was put at a Ki of 0.7 nM.
The compound `Nc1cnc(Oc2ccccc2-c2ccc(-c3cnc(N)nc3)c(F)c2)nc1` [Example 615, 5-{2′-[(5-Aminopyrimidin-2-yl)oxy]-3-fluorobiphenyl-4-yl}pyrimidin-2-amine] had an inhibition constant Ki of 50.9 nM.

Still in this assay, the particulars now being: human FLAP wild type, a calculated value of 0.000 indicates Ki less than 1 nM.
Turning to `C[C@@H]([C@@H](O)c1ccccc1)N(C)S(=O)(=O)c1ccccc1-c1ccc(-c2cnc(N)cn2)c(F)c1` [Example 118, 4′-(5-aminopyrazin-2-yl)-3′-fluoro-N-((1S,2S)-1-hydroxy-1-phenylpropan-2-yl)-N-methyl-[1,1′-biphenyl)-2-sulfonamide], the Ki was under 1 nM.

The term Ki denotes the equilibrium dissociation constant of an inhibitor or competing ligand from its target.
